In publication PMC5497784 (Cell metabolism, 2017):

Molecular target: IRE1α (Homo sapiens, UniProt O75460)
Assay: fluorescent XBP1 mini-substrate RNase assay with recombinant IRE1α*
Type: biochemical

Sequence of IRE1α (O75460 469-977): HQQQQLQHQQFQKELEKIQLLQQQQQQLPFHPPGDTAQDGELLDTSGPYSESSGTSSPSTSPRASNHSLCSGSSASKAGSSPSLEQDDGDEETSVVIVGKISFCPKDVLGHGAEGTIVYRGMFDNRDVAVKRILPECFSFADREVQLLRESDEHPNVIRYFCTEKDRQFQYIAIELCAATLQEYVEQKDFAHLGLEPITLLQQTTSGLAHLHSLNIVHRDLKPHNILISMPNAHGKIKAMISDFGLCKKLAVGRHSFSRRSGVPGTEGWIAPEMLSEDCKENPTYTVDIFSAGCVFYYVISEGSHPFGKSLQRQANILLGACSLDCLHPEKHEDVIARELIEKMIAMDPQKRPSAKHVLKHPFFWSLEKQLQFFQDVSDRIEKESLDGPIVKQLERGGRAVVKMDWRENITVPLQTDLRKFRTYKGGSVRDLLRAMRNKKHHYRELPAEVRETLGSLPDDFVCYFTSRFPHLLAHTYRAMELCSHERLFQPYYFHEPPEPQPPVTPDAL

CC(C)(C)c1nc(-c2ccc(NC(=O)Nc3cccc(C(F)(F)F)c3)c3ccccc23)c2c(N)nccn12 [KIRA6, 1-(4-(8-amino-3-tert-butylimidazo[1,5-a]pyrazin-1-yl)naphthalen-1-yl)-3-(3-(trifluoromethyl)phenyl)urea]
IC50: 40.1 nM
